Experiments:
CD-1 mice = test: 24-hour inhibitory avoidance task in mice after drug-in-diet dosing; format: in vivo; details: both doses (10 and 100 mg/kg/day in Western diet), vs vehicle control mice
Experimental: The 24-hour inhibitory avoidance task in mice is a measure of one-trial learning and memory consolidation in response to a discrete aversive event (foot-shock). Mice are first placed in an illuminated compartment of a two-compartment apparatus. Mice will naturally step through into an adjoining dark compartment, which they prefer. When the mice enter the dark they receive a mild foot-shock. To assess memory, mice are tested 24 hours later and the length of time the animal refrains from entering the dark compartment is recorded (higher latencies indicate improved memory for the aversive event).
Male CD-1 mice were obtained from Charles River, Wilmington, Mass. Mice were group-housed 10 per cage. The body weight upon arrival was 20-25 g. Food and water were available ad libitum except during experiments. […]
On the first day of testing (17 days after drug-in-diet was presented) mice were removed from the colony room in their home cage, brought to the testing room, and left undisturbed for 2 hours prior to testing initiation. […] The latency to enter the dark chamber was recorded and was the dependent variable measured for assessing memory retention (latency is defined as entry of the whole mouse; all 4 paws on the grids in the dark side, plus the tail in the chamber for 5 sec; 180 sec is maximum latency). Data were analyzed using Mann Whitney U comparisons. […]

phosphorylated CREB = test: Phosphorylated CREB immunohistochemistry in brain after food-in-diet dosing; format: in vivo, mice; details: 18 days food-in-diet (10 and 100 mg/kg/day)
Experimental: In vivo signaling studies were conducted to examine the biochemical pathways that may be mechanistically involved in the cognitive efficacy associated with Compound KK. An important signaling process that serves as a biochemical correlate of synaptic plasticity underlying learning and memory is the phosphorylation of CREB (c-AMP-response element binding protein), a transcription factor critical to long-term memory. To investigate the effects of Compound KK on CREB phosphorylation, CD1 mice treated and tested (data presented in FIG. 1) were given a 24-hour rest after testing before immunohistochemical procedures commenced.
Male CD-1 mice were obtained from Charles River, Wilmington, Mass. Mice were group-housed 10 per cage. The body weight upon arrival was 20-25 g. […]
Compound KK was administered via a drug-in-diet administration (100 mg/kg/day in Western diet) or (10 mg/kg/day in Western diet). […] Immuno-reactivity (IR) was quantified using an image analysis system (Leica, Quantimet 500) that determined number and/or area of peroxidase substrate-positive stained neurons from digitized photomicrographs according to a pixel gray level empirically determined prior to analysis. Overall statistical significance was determined using a one-way ANOVA, with Dunnett's post hoc analyses used to determine significance (p<0.05 was considered significant).

HSD-1 = test: Monkey ex vivo HSD1 activity (cortisone to cortisol in harvested tissue); set-up: species or system Cynomolgus Monkeys; details: for HSD-1 ex vivo activity, Mean % Veh Control: single 10 mg/kg oral dose
Experimental: Harvested tissues (approximately 150 mg) were minced into small, 2 mm pieces in the presence of 5× volume of incubation buffer. Cortisone at final concentrations of 0, 3, 10 or 30 μM was added to each well. Cell culture plates with tissues were incubated at 37° C. for three hours. Two-hundred μL of tissue culture supernatant was then removed and spun at 1000 rpm in an Eppindorf tube, and then 100 μL of resulting supernatant was aliquotted into two tubes for LCMS analysis of cortisol.

Sprague Dawley rats = test: Short-term social recognition memory in the rat; format: in vivo; details: 30 mg/kg po at 24, 18 and 1 hour before first juvenile exposure, vs vehicle control rats
Experimental: Social memory and social cognition are impaired in disorders such as Alzheimer's disease and schizophrenia. One of the more commonly used preclinical models of social recognition memory is short-term social recognition in the rat, a model of short-term memory based on the recognition of a juvenile rat by an adult rat. […] The juvenile rat is then removed and reintroduced 120 min later, and interactive behavior of the adult rat is again monitored. If memory has been lost over the interval between trials 1 and 2, the extent of interaction is equal (expressed as a ratio of investigation time of T1/T2) and the ratio will be close to 1. However, if the adult remembers the juvenile, the investigation ratio declines. To test for non-specific effects, a novel juvenile is introduced at 120 minutes instead of the familiar juvenile. […]
Rats were pre-dosed po at 24, 18 and 1 hour before first juvenile rat exposure with vehicle, or Compound MM (30 mg/kg). […] The time the adult spent exploring (sniffing, grooming, close following) the juvenile during this test session was recorded, and defined as the first investigation duration. […] Data were analyzed using a one-way analysis of variance. If there was a significant effect, subsequent post hoc significance was determined using Dunnett's multiple comparison testing (p<0.05 was regarded as significant).

Fisher rats = test: Rat EEG REM sleep parameters; format: in vivo; details: 30 mg/kg, 3 times at 24, 26, and 0.1 hours before measurement; 8 h EEG
Experimental: EEG of Fisher rats (n=8/group) with chronically implanted supracortical EEG-electrodes were analyzed for an 8 h period. Intraindividual drug-induced changes of power spectra were analyzed. For REM sleep the number of REM episodes, latency to first REM, and total REM time was analyzed.

ACh release = test: Microdialysis, cortical/hippocampal acetylcholine levels; format: in vivo, Sprague Dawley rats; details: single administration 30 mg/kg, p.o.
Experimental: (§1) Microdialysis studies (resting or challenging conditions) in freely moving, male Sprague Dawley rats (Janvier, 295-315 g, n=5-8/treatment group) were performed using stereotactically instrumented microdialysis probes (CMA/12-14-2): mPFC, hippocampus. Aliquots of the same microdialysate fractions (6 before, and 9-12 after compound administration) were analyzed either for acetylcholine or for serotonin by HPLC and electrochemical detection.

serotonin (5-HT) levels = test: Microdialysis, cortical/hippocampal serotonin levels; format: in vivo, Sprague Dawley rats; details: single administration 30 mg/kg, p.o.
Experimental: as §1
This is a feature shared by marketed anti-depressive drugs and might indicate the potential use for 11β-HSD1 inhibitors as antidepressants/anxiolytic drugs. These findings remain to be confirmed by (i) investigating 11β-HSD1 inhibitors from different chemotype(s) in selected microdialysis studies and/or (ii) in animal models of depression/anxiety.

SMILES | memory retention (Mean Transfer Latency), FIG. 1 (CD-1 mice) | phosphorylated CREB, FIG. 2 (phosphorylated CREB) | ex vivo inhibition of HSD1 in monkey brain, fat and liver (HSD-1; 2.5 and 16 hours following a single oral 10 mg/kg dose) | HSD-1 ex vivo activity, Mean % Veh Control (HSD-1; Cerebral Cortex, 16 hours) | HSD-1 ex vivo activity, Mean % Veh Control (HSD-1; Hippocampus, 16 hours) | HSD-1 ex vivo activity, Mean % Veh Control (HSD-1; Liver, 2.5 hours) | HSD-1 ex vivo activity, Mean % Veh Control (HSD-1; Liver, 16 hours) | HSD-1 ex vivo activity, Mean % Veh Control (HSD-1; Mesenteric Fat, 2.5 hours) | HSD-1 ex vivo activity, Mean % Veh Control (HSD-1; Mesenteric Fat, 16 hours) | short-term memory retention, FIG. 4 (Sprague Dawley rats) | increase of latency to first REM (Fisher rats) | reduction of REM time (Fisher rats) | reduction of number of REM sleep episodes (Fisher rats) | reduction of total sleep time (Fisher rats) | ACh release under resting conditions (ACh release; acute) | ACh release under challenging conditions (novel cage), cortex and hippocampus (ACh release) | serotonin (5-HT) levels in the medial prefrontal cortex and in the hippocampus (serotonin (5-HT) levels)
CC(C)(Oc1ccc(F)cc1Cl)C(=O)NC1C2CC3CC1CC(S(C)(=O)=O)(C3)C2 (centres unmarked) [Compound KK, 2-(2-Chloro-4-fluorophenoxy)-2-methyl-N-[(E)-5-(methylsulfonyl)-2-adamantyl]propanamide] | significant improvement in memory retention | increase in phosphorylated CREB | potent ex vivo inhibition | 30% | 42% | 38% | 9% | 90% | 50% |  |  |  |  |  |  |  | 
O=C(CN1CCN(c2ccc(C(F)(F)F)cn2)CC1)NC1C2CC3CC1CC(O)(C3)C2 (centres unmarked) [Compound MM, N-[(E)-5-Hydroxy-2-adamantyl]-2-{-4-[5-(trifluoromethyl)pyridin-2-yl]piperazin-1-yl}acetamide] |  |  |  |  |  |  |  |  |  | significant improvement in short-term memory retention | 62% | 23% | 16% | 10% | did not change ACh release | did not induce any further stimulation of ACh release | long-lasting increase

From patent publication US8993632B2, “Inhibitors of the 11-beta-hydroxysteroid dehydrogenase type 1 enzyme” (AbbVie Inc., priority 2005, dated 2015)
